Paper PMC3961306, “Comparison of the Cancer Gene Targeting and Biochemical Selectivities of All Targeted Kinase Inhibitors Approved for Clinical Use” (PLoS ONE, 2014)
Like-named read-outs stand apart in the source and are kept apart here.

Tests used:
[1] = molecular target: panel of more than 300 wild-type and mutant kinases (313 kinase panel) (Homo sapiens, UniProt P10721, T670I); experiment: Kinase profiling in a biochemical assay panel (mobility shift assays and ELISA), %-inhibition at 1 μM; selectivity entropy; settings: kinase KIT(T670I); compound at 1 μM
[2] = molecular target: panel of more than 300 wild-type and mutant kinases (313 kinase panel) (Homo sapiens, UniProt Q8N4C8); experiment: as above; settings: 1 µM
[3] = molecular target: panel of more than 300 wild-type and mutant kinases (313 kinase panel) (Homo sapiens, UniProt Q9HC98); experiment: as above; settings: kinase NEK6; 1 μM
[4] = molecular target: panel of more than 300 wild-type and mutant kinases (313 kinase panel) (Homo sapiens, UniProt P22612); experiment: as above; settings: kinase PKACγ; 1 μM
[5] = molecular target: panel of more than 300 wild-type and mutant kinases (313 kinase panel) (Homo sapiens, UniProt P00519, E255K); experiment: as above; settings: 1 µM
[6] = molecular target: T1, panel of more than 300 wild-type and mutant kinases (313 kinase panel) (Homo sapiens, UniProt Q9UL54); experiment: as above; settings: kinase TAOK2; 1 μM
T1 sequence (Q9UL54 1-1235): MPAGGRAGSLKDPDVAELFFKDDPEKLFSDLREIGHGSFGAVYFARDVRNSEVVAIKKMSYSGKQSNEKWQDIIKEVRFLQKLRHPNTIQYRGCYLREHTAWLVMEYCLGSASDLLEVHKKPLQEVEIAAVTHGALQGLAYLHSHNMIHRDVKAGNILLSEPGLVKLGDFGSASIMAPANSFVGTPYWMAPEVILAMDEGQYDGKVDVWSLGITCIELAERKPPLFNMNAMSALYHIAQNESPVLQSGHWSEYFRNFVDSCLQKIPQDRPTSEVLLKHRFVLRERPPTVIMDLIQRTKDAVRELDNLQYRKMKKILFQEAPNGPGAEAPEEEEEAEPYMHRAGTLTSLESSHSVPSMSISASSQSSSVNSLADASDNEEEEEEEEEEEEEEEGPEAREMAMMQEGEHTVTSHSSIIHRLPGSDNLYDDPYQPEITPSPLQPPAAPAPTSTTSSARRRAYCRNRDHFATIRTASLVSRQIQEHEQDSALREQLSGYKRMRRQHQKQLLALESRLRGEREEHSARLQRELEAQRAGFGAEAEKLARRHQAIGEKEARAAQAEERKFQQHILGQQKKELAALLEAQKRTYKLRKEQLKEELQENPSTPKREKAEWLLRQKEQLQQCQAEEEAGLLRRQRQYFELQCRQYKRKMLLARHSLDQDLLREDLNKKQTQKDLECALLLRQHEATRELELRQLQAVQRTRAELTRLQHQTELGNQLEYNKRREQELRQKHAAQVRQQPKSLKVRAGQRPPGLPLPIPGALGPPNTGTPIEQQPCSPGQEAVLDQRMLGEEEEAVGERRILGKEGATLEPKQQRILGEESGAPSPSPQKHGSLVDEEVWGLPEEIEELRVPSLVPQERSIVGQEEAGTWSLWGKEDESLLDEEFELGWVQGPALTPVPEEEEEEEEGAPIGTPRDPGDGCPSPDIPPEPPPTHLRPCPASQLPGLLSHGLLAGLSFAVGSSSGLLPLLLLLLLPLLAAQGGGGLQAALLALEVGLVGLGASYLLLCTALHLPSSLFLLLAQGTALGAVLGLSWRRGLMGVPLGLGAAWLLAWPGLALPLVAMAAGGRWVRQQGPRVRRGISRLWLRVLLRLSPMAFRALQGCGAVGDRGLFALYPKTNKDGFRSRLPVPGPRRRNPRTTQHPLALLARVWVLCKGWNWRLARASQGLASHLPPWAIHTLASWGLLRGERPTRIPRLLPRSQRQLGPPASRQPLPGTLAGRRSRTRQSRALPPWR

[7] = molecular target: panel of more than 300 wild-type and mutant kinases (313 kinase panel) (Homo sapiens, UniProt P04049); experiment: as above; settings: 1 µM
[8] = molecular target: panel of more than 300 wild-type and mutant kinases (313 kinase panel) (Homo sapiens, UniProt Q04912); experiment: as above; settings: kinase RON; 1 μM
[9] = test system: forty-four human cancer cell lines; experiment: Cell proliferation assay (ATPlite, 72 hours) in the 44 cell line Oncolines panel; format: cell-based; settings: Homo sapiens

Sequence of panel of more than 300 wild-type and mutant kinases (313 kinase panel) (Homo sapiens, UniProt P00519, E255K) (P00519 whole entry E255K): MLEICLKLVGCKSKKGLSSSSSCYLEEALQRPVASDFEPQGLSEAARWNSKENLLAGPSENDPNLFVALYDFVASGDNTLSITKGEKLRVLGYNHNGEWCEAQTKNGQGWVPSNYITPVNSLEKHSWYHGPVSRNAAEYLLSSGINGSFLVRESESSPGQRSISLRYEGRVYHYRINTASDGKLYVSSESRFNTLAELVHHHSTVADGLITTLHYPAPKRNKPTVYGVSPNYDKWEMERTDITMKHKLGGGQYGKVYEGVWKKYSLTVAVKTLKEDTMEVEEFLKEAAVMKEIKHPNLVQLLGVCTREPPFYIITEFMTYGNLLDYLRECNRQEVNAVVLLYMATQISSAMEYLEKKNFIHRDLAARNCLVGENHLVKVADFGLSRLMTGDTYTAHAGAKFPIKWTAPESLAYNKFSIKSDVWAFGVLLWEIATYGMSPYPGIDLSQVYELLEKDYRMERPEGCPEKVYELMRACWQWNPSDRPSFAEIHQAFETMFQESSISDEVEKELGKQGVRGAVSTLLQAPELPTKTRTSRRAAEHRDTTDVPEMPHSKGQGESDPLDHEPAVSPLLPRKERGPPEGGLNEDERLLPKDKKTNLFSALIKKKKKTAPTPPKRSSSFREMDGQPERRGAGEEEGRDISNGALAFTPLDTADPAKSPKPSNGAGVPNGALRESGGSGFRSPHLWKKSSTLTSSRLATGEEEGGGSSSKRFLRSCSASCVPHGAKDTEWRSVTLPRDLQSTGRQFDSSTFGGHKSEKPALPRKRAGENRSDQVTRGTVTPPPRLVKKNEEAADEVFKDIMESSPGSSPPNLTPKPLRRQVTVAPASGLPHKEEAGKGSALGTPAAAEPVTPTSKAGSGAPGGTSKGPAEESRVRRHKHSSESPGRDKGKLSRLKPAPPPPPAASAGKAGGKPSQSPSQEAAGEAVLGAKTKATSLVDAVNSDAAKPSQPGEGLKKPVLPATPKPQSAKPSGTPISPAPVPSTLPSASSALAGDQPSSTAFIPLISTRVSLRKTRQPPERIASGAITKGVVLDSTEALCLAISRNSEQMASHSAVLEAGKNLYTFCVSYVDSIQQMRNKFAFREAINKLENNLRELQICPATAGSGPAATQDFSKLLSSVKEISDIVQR
Sequence of panel of more than 300 wild-type and mutant kinases (313 kinase panel) (Homo sapiens, UniProt P04049) (P04049 whole entry, change not shown): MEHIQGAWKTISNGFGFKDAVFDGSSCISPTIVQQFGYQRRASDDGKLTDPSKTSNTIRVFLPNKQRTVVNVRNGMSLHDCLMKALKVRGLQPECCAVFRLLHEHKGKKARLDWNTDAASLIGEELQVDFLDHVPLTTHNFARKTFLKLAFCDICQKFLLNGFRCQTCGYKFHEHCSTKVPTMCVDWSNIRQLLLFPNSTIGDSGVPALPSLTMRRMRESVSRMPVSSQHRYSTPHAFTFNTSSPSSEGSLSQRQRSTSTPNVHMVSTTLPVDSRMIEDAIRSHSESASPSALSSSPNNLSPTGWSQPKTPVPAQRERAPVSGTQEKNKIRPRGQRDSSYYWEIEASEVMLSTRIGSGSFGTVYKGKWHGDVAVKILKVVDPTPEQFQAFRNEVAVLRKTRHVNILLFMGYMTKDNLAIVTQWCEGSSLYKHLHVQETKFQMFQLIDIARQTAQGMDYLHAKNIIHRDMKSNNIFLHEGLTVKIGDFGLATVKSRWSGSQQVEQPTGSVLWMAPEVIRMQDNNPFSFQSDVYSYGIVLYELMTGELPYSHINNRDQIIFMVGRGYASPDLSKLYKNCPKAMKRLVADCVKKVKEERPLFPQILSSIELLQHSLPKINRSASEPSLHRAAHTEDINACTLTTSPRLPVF
Sequence of panel of more than 300 wild-type and mutant kinases (313 kinase panel) (Homo sapiens, UniProt P10721, T670I) (P10721 26-976 T670I): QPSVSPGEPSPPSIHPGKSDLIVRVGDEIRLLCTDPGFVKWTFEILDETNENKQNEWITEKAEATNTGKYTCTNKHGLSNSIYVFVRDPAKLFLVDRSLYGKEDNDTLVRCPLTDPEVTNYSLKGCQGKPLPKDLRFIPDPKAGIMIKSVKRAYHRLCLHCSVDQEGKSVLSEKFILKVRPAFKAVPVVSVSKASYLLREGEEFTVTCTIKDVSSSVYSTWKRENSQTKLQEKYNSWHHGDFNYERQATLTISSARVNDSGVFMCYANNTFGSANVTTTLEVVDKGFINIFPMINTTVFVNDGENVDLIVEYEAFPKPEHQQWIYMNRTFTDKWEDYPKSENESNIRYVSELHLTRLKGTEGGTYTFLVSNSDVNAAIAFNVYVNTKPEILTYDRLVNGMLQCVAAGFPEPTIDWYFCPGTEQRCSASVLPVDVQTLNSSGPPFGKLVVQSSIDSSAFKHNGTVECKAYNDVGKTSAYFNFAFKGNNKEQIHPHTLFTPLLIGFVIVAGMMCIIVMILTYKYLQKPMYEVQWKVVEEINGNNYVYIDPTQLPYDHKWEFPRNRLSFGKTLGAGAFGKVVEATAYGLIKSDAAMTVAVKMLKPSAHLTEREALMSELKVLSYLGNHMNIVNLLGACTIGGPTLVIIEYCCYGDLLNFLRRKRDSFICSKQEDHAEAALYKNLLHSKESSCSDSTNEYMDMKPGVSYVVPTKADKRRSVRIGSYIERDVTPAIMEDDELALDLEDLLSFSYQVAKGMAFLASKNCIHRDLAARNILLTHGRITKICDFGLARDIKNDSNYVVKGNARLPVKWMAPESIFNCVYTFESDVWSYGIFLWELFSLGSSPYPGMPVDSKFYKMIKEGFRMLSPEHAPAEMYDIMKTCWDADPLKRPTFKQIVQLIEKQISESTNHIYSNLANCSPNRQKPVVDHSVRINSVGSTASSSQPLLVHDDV
Sequence of panel of more than 300 wild-type and mutant kinases (313 kinase panel) (Homo sapiens, UniProt Q8N4C8) (Q8N4C8 whole entry, change not shown): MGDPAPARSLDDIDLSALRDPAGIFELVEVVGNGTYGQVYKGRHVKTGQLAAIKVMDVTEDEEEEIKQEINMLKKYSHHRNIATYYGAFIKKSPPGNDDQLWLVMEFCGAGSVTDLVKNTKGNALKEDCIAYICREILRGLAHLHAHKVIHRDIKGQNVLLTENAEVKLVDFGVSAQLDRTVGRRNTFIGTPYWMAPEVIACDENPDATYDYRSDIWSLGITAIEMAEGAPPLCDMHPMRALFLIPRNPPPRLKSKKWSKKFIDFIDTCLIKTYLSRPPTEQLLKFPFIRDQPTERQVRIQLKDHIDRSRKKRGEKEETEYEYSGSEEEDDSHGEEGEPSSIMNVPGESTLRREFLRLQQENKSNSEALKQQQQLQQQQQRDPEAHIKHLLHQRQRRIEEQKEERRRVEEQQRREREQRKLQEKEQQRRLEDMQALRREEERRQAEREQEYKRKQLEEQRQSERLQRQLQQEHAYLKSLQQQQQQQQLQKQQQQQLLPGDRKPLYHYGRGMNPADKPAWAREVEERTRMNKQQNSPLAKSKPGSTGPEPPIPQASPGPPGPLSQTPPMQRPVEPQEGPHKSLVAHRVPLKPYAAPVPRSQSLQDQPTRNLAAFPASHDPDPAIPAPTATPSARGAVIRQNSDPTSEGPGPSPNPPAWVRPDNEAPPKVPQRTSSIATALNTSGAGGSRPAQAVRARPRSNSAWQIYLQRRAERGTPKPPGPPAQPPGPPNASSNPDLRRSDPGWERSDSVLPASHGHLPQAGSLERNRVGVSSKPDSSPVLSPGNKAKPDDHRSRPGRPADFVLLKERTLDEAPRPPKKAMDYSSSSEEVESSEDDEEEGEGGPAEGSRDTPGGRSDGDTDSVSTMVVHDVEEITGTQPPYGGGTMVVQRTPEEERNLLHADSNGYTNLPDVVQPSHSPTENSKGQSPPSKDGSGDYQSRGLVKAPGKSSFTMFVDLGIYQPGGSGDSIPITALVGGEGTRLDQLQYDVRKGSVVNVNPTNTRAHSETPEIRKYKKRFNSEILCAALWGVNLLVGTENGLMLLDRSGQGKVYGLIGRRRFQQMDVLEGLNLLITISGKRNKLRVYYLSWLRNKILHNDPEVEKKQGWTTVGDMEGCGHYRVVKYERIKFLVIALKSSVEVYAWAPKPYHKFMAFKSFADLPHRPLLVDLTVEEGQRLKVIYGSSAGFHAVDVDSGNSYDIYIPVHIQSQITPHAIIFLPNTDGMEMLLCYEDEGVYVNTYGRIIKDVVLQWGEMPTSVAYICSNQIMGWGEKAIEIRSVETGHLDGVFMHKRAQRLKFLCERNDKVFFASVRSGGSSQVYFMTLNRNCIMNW

`N#CC[C@H](C1CCCC1)n1cc(-c2ncnc3[nH]ccc23)cn1` [ruxolitinib] was tested, and the “%-inhibition of KIT(T670I)” value [1] was -0.512%, the “%-inhibition of MINK” value [2] was -6% and the “%-inhibition of NEK6” value [3] was -6%. For the same compound, the “%-inhibition of PKACγ” value [4] was 11%, the “%-inhibition, ABL(E255K)” value [5] was 0.0579% and the “%-inhibition of TAOK2” value [6] was 35%. For the same compound, the “%-inhibition of RAF1” value [7] was 9%, the “%-inhibition of RON” value [8] was -5% and the IC50 ([9]; 4-4 cell, read-out: cell panel IC50, J82) was > 31.6 µM. The IC50 ([9]; 4-4 cell, read-out: cell panel IC50, PA-1) was 26.9 µM, the IC50 ([9]; 4-4 cell, read-out: cell panel IC50, SJCRH30) was 25.4 µM and the IC50 ([9]; 4-4 cell, read-out: cell panel IC50, SR) was 4.44 µM. For the same compound, the IC50 ([9]; 769-P, read-out: cell panel IC50, 769-P) was 18.4 µM, the IC50 ([9]; 786-0, read-out: cell panel IC50, 786-0) was > 31.6 µM and the IC50 ([9]; A 172, read-out: cell panel IC50, A-172) was 31.5 µM. The IC50 ([9]; A204, read-out: cell panel IC50, A-204) was > 31.6 µM, the IC50 ([9]; A498, read-out: cell panel IC50, A-498) was > 31.6 µM and the IC50 ([9]; A549, read-out: cell panel IC50, A-549) was 21.9 µM. For the same compound, the IC50 ([9]; A-375, read-out: cell panel IC50, A375) was > 31.6 µM, the IC50 ([9]; A-427, read-out: cell panel IC50, A-427) was 11.7 µM and the IC50 ([9]; ACHN, read-out: cell panel IC50, ACHN) was > 31.6 µM. The IC50 ([9]; AN3-CA, read-out: cell panel IC50, AN3 CA) was 9.88 µM, the IC50 ([9]; AU565, read-out: cell panel IC50, AU-565) was 28.3 µM and the IC50 ([9]; BT-20, read-out: cell panel IC50, BT-20) was > 31.6 µM. For the same compound, the IC50 ([9]; BT-549, read-out: cell panel IC50, BT-549) was > 31.6 µM, the IC50 ([9]; BXPC-3, read-out: cell panel IC50, BxPC-3) was 16.2 µM and the IC50 ([9]; C-33-A, read-out: cell panel IC50, C-33 A) was 9.4 µM. The IC50 ([9]; CAL-27, read-out: cell panel IC50, CAL 27) was > 31.6 µM, the IC50 ([9]; CCRF-CEM, read-out: cell panel IC50, CCRF-CEM) was 29 µM and the IC50 ([9]; DLD-1, read-out: cell panel IC50, DLD-1) was 31.1 µM. The IC50 ([9]; FaDu, read-out: cell panel IC50, FaDu) was > 31.6 µM, the IC50 ([9]; HCT-15, read-out: cell panel IC50, HCT-15) was 25.3 µM and the IC50 ([9]; HCT-116, read-out: cell panel IC50, HCT-116) was 30 µM. The IC50 ([9]; Hs-578T, read-out: cell panel IC50, Hs 578T) was > 31.6 µM, the IC50 ([9]; Jurkat E6.1, read-out: cell panel IC50, Jurkat E6.1) was 21.5 µM and the IC50 ([9]; K562, read-out: cell panel IC50, K-562) was 26.4 µM. It also gave an IC50 ([9]; LS174T, read-out: cell panel IC50, LS 174T) of 30.8 µM, an IC50 ([9]; LoVo, read-out: cell panel IC50, LoVo) of 24.4 µM and an IC50 ([9]; MG-63, read-out: cell panel IC50, MG-63) of 26.2 µM. The IC50 ([9]; MOLT-4, read-out: cell panel IC50, MOLT-4) was 21.8 µM, the IC50 ([9]; MeWo, read-out: cell panel IC50, MeWo) was > 31.6 µM and the IC50 ([9]; NCI-H82, read-out: cell panel IC50, NCI-H82) was 21 µM. The IC50 ([9]; NCI-H460, read-out: cell panel IC50, NCI-H460) was 27 µM, the IC50 ([9]; OVCAR-3, read-out: cell panel IC50, OVCAR-3) was > 31.6 µM and the IC50 ([9]; RPMI-7951, read-out: cell panel IC50, RPMI-7951) was 15.6 µM. It also gave an IC50 ([9]; SHP77, read-out: cell panel IC50, SHP-77) of 31.2 µM, an IC50 ([9]; SK-N-AS, read-out: cell panel IC50, SK-N-AS) of 21.1 µM and an IC50 ([9]; SW48, read-out: cell panel IC50, SW48) of 19.5 µM. The IC50 ([9]; SW480, read-out: cell panel IC50, SW480) was > 31.6 µM, the IC50 ([9]; SW-620, read-out: cell panel IC50, SW620) was 28.4 µM and the IC50 ([9]; U2OS, read-out: cell panel IC50, U-2 OS) was 25.1 µM. The IC50 ([9]; U-87 MG, 72 h, read-out: IC50 in cell proliferation assay (table S5 cellpanel data)) was > 31.6 µM.
